Experimental data taken from US11005049B2, “Metal complexes” (priority 2013, dated 2021).
Several values for one entry are separate records, joined by “and”; a condition that tells them apart may be missing. Equal values may be shown once. Read-outs that look alike come from different tables or passages of the source.

Legend:
[1] = tested on: Salmonella typhimurium strain TA100
Procedure: Compounds V1 and E2 are subjected to a standardised AMES test (bacteria: Salmonella typhimurium; strains TA98, TA100 and TA102). […] The test is carried out by the person skilled in the art employing standard methods which are well known in the prior art. The solvent used is DMSO (dimethyl sulfoxide).
The test is carried out both without and also with metabolic activation using an S9 mix.

[2] = tested on: Salmonella typhimurium strain TA98; assay: standardised AMES test, strain TA98; assay type: cell-based
From the text: (§1) The solvent used is DMSO (dimethyl sulfoxide).

[3] = tested on: Salmonella typhimurium strain TA102; assay: standardised AMES test, strain TA102; assay type: cell-based
[4] = tested on: Salmonella typhimurium; strains TA98, TA100 and TA102; assay: standardised AMES test, overall mutagenicity finding; assay type: cell-based
From the text: as §1

[5] = metabolic activation using S9 mix, 5 μg/plate
[6] = metabolic activation using S9 mix, 15.8 μg/plate
[7] = metabolic activation using S9 mix, 50 μg/plate
[8] = metabolic activation using S9 mix, 158 μg/plate
[9] = no metabolic activation, 5 μg/plate
[10] = no metabolic activation, 15.8 μg/plate
[11] = no metabolic activation, 50 μg/plate
[12] = metabolic activation using S9 mix, 500 μg/plate
[13] = metabolic activation using S9 mix, 1580 μg/plate
[14] = metabolic activation using S9 mix, 5000 μg/plate
[15] = no metabolic activation, 158 μg/plate
[16] = no metabolic activation, 500 μg/plate
[17] = no metabolic activation, 1580 μg/plate
[18] = no metabolic activation, 5000 μg/plate

[N-]=[N+]=[N-] [NaN3, sodium azide, reference compound]
Revertants/plate (mean ± SD) TA100 ([1]; no metabolic activation, 2 μg/plate, reference): 1090 ± 35 Revertants/plate and 743 ± 52 Revertants/plate

Oc1cccc2cccnc12.[Li] [Liq, lithium 8-hydroxyquinoline, reference compound]
Revertants/plate (mean ± SD) TA98 [2, 5]: 31 ± 11 Revertants/plate | Revertants/plate (mean ± SD) TA98 [2, 6]: 40 ± 2 Revertants/plate | Revertants/plate (mean ± SD) TA98 [2, 7]: 87 ± 1 Revertants/plate | Revertants/plate (mean ± SD) TA98 [2, 8]: 100 ± 4 Revertants/plate | Revertants/plate (mean ± SD) TA98 [2, 9]: 23 ± 2 Revertants/plate | Revertants/plate (mean ± SD) TA98 [2, 10]: 20 ± 4 Revertants/plate | Revertants/plate (mean ± SD) TA98 [2, 11]: 22 ± 1 Revertants/plate | Revertants/plate (mean ± SD) TA102 [3, 5]: 559 ± 8 Revertants/plate | Revertants/plate (mean ± SD) TA102 [3, 6]: 697 ± 8 Revertants/plate | Revertants/plate (mean ± SD) TA102 [3, 7]: 1469 ± 27 Revertants/plate | Revertants/plate (mean ± SD) TA102 [3, 8]: 911 ± 269 Revertants/plate | Revertants/plate (mean ± SD) TA102 [3, 9]: 344 ± 33 Revertants/plate | Revertants/plate (mean ± SD) TA102 [3, 10]: 270 ± 30 Revertants/plate | Revertants/plate (mean ± SD) TA102 [3, 11]: 257 ± 59 Revertants/plate | mutagenicity in AMES test ([4]; all three bacteria strains, in the presence of metabolic activation): significant mutagenicity

CC(C)(C)c1ccc2cccc(O)c2n1.[Li] [Compound E2, lithium 2-tert-butyl-8-hydroxyquinoline]
Revertants/plate (mean ± SD) TA98 [2, 5]: 24 ± 6 Revertants/plate | Revertants/plate (mean ± SD) TA98 [2, 6]: 30 ± 2 Revertants/plate | Revertants/plate (mean ± SD) TA98 [2, 7]: 33 ± 4 Revertants/plate | Revertants/plate (mean ± SD) TA98 [2, 8]: 30 ± 3^S Revertants/plate | Revertants/plate (mean ± SD) TA98 [2, 12]: 25 ± 7^SB Revertants/plate | Revertants/plate (mean ± SD) TA98 [2, 13]: 18 ± 5^SB Revertants/plate | Revertants/plate (mean ± SD) TA98 [2, 14]: 13 ± 1^SE Revertants/plate | Revertants/plate (mean ± SD) TA98 [2, 9]: 23 ± 11 Revertants/plate | Revertants/plate (mean ± SD) TA98 [2, 10]: 29 ± 3 Revertants/plate | Revertants/plate (mean ± SD) TA98 [2, 11]: 18 ± 6 Revertants/plate | Revertants/plate (mean ± SD) TA98 [2, 15]: 20 ± 6^S Revertants/plate | Revertants/plate (mean ± SD) TA98 [2, 16]: 14 ± 8^SB Revertants/plate | Revertants/plate (mean ± SD) TA98 [2, 17]: 10 ± 4^SB Revertants/plate | Revertants/plate (mean ± SD) TA98 [2, 18]: 17 ± 6^SE Revertants/plate | Revertants/plate (mean ± SD) TA100 [1, 5]: 199 ± 4 Revertants/plate | Revertants/plate (mean ± SD) TA100 [1, 6]: 132 ± 11 Revertants/plate | Revertants/plate (mean ± SD) TA100 [1, 7]: 143 ± 8 Revertants/plate | Revertants/plate (mean ± SD) TA100 [1, 8]: 147 ± 8^S Revertants/plate | Revertants/plate (mean ± SD) TA100 [1, 12]: 108 ± 1^SB Revertants/plate | Revertants/plate (mean ± SD) TA100 [1, 13]: 57 ± 16 Revertants/plate | Revertants/plate (mean ± SD) TA100 [1, 14]: 4 ± 3 Revertants/plate | Revertants/plate (mean ± SD) TA100 [1, 9]: 142 ± 25 Revertants/plate | Revertants/plate (mean ± SD) TA100 [1, 10]: 133 ± 8 Revertants/plate | Revertants/plate (mean ± SD) TA100 [1, 11]: 104 ± 12 Revertants/plate | Revertants/plate (mean ± SD) TA100 [1, 15]: 103 ± 1^S Revertants/plate | Revertants/plate (mean ± SD) TA100 [1, 16]: 62 ± 17^SB Revertants/plate | Revertants/plate (mean ± SD) TA100 [1, 17]: 41 ± 2 Revertants/plate | Revertants/plate (mean ± SD) TA100 [1, 18]: 7 ± 3 Revertants/plate | Revertants/plate (mean ± SD) TA102 [3, 5]: 302 ± 18 Revertants/plate | Revertants/plate (mean ± SD) TA102 [3, 6]: 255 ± 8 Revertants/plate | Revertants/plate (mean ± SD) TA102 [3, 7]: 245 ± 22 Revertants/plate | Revertants/plate (mean ± SD) TA102 [3, 8]: 142 ± 22^S Revertants/plate | Revertants/plate (mean ± SD) TA102 [3, 12]: 89 ± 11^SB Revertants/plate | Revertants/plate (mean ± SD) TA102 [3, 13]: 62 ± 3^SB Revertants/plate | Revertants/plate (mean ± SD) TA102 [3, 14]: 37 ± 1^SE Revertants/plate | Revertants/plate (mean ± SD) TA102 [3, 9]: 224 ± 6 Revertants/plate | Revertants/plate (mean ± SD) TA102 [3, 10]: 217 ± 41 Revertants/plate | Revertants/plate (mean ± SD) TA102 [3, 11]: 237 ± 11 Revertants/plate | Revertants/plate (mean ± SD) TA102 [3, 15]: 180 ± 11^S Revertants/plate | Revertants/plate (mean ± SD) TA102 [3, 16]: 124 ± 1^SB Revertants/plate | Revertants/plate (mean ± SD) TA102 [3, 17]: 51 ± 18^SB Revertants/plate | Revertants/plate (mean ± SD) TA102 [3, 18]: 25 ± 1^SE Revertants/plate | mutagenic effect in AMES test ([4]; both without and with metabolic activation using an S9 mix): No mutagenic effect
